Results published in patent US20250114356A1, “INDAZOLE BASED COMPOUNDS AND ASSOCIATED METHODS OF USE” (Arvinas Operations, Inc., priority 2020, published 2025).

Assays:
Type in all cases: cell-based
[1] = target: T1, LRRK2 (endogenous gene tagged with a HiBit sequence) (Homo sapiens, UniProt Q5S007); experiment: LRRK2 degradation assay, endogenous LRRK2 gene tagged with HiBit in HEK293 cells; details: 24 hours compound incubation
T1 construct: endogenous in cells; host or cells: HEK293 with a HiBit knock-in at the endogenous LRRK2 locus, stably expressing firefly luciferase
Description: The assay measures the degradation of LRRK2 in cells where the C-terminus (3′) of the endogenous gene has been tagged with a HiBit sequence in HEK293 cells. The cells also express firefly lucisferase, expressed from a Cytomegalovirus promoter and introduced into the HiBit tagged cells and stably expressed. The Nano-Glo® Dual Luciferase Reporter Assay System (Promega™, Madison, WI) was utilized.
Day 1—Preparation of Compound and Assay Plates. Two sets of plates were prepared: a triplicate set for the HiBit assay in white 384-well plates and a triplicate set of plate in black 384-well plates for the Alamar Blue cell viability assay. Briefly, the growth media (DMEM+Glutamax-10% fetal bovine serum-1% Penicillin-Streptomicin) from two T128 flasks was aspirated from the flasks. Cells were washed with Dulbecco's Phosphate Buffered Saline (dPBS) and aspirated. Trypsin (3 mL per flask) was added and the flasks were incubated for 2-3 minutes.
Ten mL of OptiMEM-10% fetal bovine-1% penicillin-streptomycin (hereinafter, “OptiMEM media”) was added to the flask and the cells and transferred to a 50 mL conical tube. A cell count (25 ul of cell into Effendorf vial+25 ul of Trypan Blue Stain) was performed and the cell density adjusted to 15,000 cell/45 μl/well (3.33×10^5/mL) in OptiMEM media.
Forty-five microliters of the cell suspension (15,000 cells) was aliquoted to each well of the white 384-well plate. The plates incubated at room temperature for 10 minutes before being placed in the 37° C.+5% CO2 incubator overnight
Day 2—Compound Treatment. Exemplary compounds were prepared at a 1 mM starting concentration and 1:3 serial dilution for 11 points CRC prepared and stored in the freezer. The Master Compound Plate was thawed overnight at room temperature. DMSO (20 μL) was added into column 24 of the Master Compound Plate for negative control and 20 μL of 300 μM of Exemplary Compound 4 in column 23 as positive control.
Intermediate Compound Plate with 4% DMSO in OptiMEM Media. DMSO was added to warm OptiMEM media to achieve a 4% DMSO solution (approximately 50 mL/plate). One-hundred microliters of the OptiMEM-4% DMSO was aliquoted to each well of 384-Well Deep Well Microplates.
The Master Compound Plate and the Intermediate Compound Plate were spun down.
One microliter of compound from the Master Compound Plate was transferred into the Intermediate plate (a 1:100 dilution). […]
Day 3—HiBit Assay. […] Fluorescence of each plate was read on a plated reader for the Alamar Blue viability assay. […]
The One Glo luciferase mixture was prepared. […] The luminescence of each plate was read on a plate reader.
1:100 DLR substrate and 1:100 LgBiT Protein dilution were added to the Promega Stop and Glo buffer and mixed just before addition to assay plates. […] The luminescence of each plate was read on a plate reader. […]

[2] = target: T2, wildtype LRRK2 (Homo sapiens, UniProt Q5S007); experiment: LRRK2 degradation assay, wildtype LRRK2-HiBit expressed from plasmid in HEK293 cells; details: HEK293 cells transfected with HiBit-tagged wildtype LRRK2, 24 hours compound incubation; for Dmax: read-out: **WT Dmax (%); for DC50: read-out: *WT DC50
T2 construct: expressed in transfected cells; host or cells: HEK293 (ATCC CRL-1573), transient transfection, ubiquitin promoter
Summary of the method: (§1)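 DC50 and Dmax derived from per-plate curve fits of LRRK2-HiBit signal over firefly luciferase (cell number/viability), as % of DMSO median, from 6 replicates across two days. Compound exposure was 24 hours at 37° C. in HEK293 cells transfected with wild-type or G2019S LRRK2 bearing a C-terminal HiBit tag.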

[3] = target: T3, G2019S LRRK2 (Homo sapiens, UniProt Q5S007, G2019S); experiment: LRRK2 degradation assay, G2019S LRRK2-HiBit expressed from plasmid in HEK293 cells; details: HEK293 cells transfected with HiBit-tagged G2019S LRRK2, 24 hours compound incubation
T3 construct: expressed in transfected cells; host or cells: HEK293 (ATCC CRL-1573), transient transfection, ubiquitin promoter
Summary of the method: as §1

T3 sequence (Q5S007 whole entry G2019S): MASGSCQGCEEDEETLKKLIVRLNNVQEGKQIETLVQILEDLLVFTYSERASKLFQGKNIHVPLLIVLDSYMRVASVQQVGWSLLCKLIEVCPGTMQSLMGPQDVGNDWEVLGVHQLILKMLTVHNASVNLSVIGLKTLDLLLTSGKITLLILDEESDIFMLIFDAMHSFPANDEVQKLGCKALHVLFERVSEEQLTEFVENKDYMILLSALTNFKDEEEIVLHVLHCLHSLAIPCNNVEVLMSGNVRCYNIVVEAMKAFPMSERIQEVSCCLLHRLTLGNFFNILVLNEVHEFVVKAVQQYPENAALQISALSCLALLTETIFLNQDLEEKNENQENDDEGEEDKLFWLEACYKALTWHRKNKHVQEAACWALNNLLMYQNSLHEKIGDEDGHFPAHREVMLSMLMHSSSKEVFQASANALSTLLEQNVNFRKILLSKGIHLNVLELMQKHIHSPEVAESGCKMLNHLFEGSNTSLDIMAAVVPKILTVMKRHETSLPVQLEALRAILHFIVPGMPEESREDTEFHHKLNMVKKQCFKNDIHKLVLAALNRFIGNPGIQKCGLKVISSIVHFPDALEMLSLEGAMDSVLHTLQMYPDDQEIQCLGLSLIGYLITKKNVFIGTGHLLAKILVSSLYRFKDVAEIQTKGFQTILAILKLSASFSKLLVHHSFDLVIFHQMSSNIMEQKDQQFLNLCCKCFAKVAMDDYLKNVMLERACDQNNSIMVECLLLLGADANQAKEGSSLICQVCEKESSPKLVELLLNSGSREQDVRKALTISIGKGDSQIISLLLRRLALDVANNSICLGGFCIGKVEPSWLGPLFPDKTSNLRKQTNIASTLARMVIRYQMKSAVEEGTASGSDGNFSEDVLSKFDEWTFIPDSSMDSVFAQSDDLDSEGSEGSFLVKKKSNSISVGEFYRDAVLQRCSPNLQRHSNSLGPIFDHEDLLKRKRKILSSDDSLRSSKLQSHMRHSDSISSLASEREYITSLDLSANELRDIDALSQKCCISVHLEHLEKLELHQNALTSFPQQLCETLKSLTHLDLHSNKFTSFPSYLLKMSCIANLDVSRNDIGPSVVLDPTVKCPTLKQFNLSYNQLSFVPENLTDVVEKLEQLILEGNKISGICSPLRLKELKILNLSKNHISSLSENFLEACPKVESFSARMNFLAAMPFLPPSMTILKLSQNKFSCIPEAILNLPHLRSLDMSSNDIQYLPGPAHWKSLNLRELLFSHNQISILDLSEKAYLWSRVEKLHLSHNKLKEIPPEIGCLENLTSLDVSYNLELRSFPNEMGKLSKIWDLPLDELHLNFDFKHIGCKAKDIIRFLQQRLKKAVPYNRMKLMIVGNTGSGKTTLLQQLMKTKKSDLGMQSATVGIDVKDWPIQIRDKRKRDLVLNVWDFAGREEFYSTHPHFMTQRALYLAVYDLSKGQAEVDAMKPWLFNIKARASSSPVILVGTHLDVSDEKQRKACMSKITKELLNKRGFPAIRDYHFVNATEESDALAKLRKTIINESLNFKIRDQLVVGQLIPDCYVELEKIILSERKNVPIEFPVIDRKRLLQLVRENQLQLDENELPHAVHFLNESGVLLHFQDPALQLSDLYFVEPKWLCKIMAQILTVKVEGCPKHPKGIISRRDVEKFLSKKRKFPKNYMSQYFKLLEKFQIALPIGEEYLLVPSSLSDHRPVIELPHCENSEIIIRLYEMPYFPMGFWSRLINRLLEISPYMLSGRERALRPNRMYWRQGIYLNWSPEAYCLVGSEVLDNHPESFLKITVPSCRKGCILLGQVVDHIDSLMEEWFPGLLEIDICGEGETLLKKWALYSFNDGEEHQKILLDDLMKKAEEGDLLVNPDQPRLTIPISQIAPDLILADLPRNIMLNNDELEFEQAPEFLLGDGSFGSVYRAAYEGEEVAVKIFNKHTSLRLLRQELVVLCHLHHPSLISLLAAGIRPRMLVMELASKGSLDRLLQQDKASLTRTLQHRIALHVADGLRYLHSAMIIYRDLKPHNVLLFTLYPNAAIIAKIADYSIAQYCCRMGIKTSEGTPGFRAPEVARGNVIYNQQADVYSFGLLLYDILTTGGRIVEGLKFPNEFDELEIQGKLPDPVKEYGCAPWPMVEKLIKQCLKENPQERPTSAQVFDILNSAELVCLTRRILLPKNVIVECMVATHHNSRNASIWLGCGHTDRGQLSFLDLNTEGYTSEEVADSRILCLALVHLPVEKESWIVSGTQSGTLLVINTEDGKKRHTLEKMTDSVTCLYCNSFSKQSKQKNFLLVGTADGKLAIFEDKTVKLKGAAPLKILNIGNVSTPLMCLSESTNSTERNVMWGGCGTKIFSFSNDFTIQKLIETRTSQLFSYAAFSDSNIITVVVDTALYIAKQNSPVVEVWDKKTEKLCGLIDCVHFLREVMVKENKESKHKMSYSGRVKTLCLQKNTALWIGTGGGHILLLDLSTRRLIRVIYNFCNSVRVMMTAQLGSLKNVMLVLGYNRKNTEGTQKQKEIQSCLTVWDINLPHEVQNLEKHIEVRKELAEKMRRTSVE
T2 sequence (Q5S007 whole entry): as the sequence (Q5S007 whole entry G2019S) above, with S2019G counted along it
T1 sequence (Q5S007 whole entry): as the sequence (Q5S007 whole entry G2019S) above, with S2019G counted along it

SMILES	Dmax ([1]; read-out: **Endogenous WT Dmax (%)) [%]	DC50 ([1]; read-out: *Endogenous WT DC50) [nM]	Dmax [2] [%]	DC50 [2] [nM]	DC50 [3] [nM]	Dmax [3] [%]
C[C@H]1CN(c2cc(-c3n[nH]c4ccc(OC5(C)CC5)cc34)ncn2)CCN1CCOCCOCCOCCOc1ccc2c(c1)C(=O)N(C1CCC(=O)NC1=O)C2=O (stereo partly drawn) [compound 4, 2-(2,6-dioxopiperidin-3-yl)-5-{2-[2-(2-{2-[(2S)-2-methyl-4-{6-[5-(1-methylcyclopropoxy)-1H-indazol-3-yl]pyrimidin-4-yl}piperazin-1-yl]ethoxy}ethoxy)ethoxy]ethoxy}-2,3-dihydro-1H-isoindole-1,3-dione]	50 to 70	< 10	50 to 70	< 10	10 to 50	50 to 70
CC(C)Oc1ccc2[nH]nc(-c3cc(N4CCN(CCC5CCN(CC6CCN(c7ccc8c(c7)C(=O)N(C7CCC(=O)NC7=O)C8=O)CC6)CC5)CC4)ncn3)c2c1 (centres unmarked) [compound 41, 2-(2,6-dioxopiperidin-3-yl)-5-(4-((4-(2-(4-(6-(5-isopropoxy-1H-indazol-3-yl)pyrimidin-4-yl)piperazin-1-yl)ethyl)piperidin-1-yl)methyl)piperidin-1-yl)isoindoline-1,3-dione]	–	–	50 to 70	10 to 50	10 to 50	50 to 70
CC(C)Oc1ccc2[nH]nc(-c3cc(N4CCN(CC[C@H]5CCN(CC6CCN(c7ccc8c(c7)C(=O)N(C7CCC(=O)NC7=O)C8=O)CC6)C5)CC4)ncn3)c2c1 (stereo partly drawn) [compound 42, 2-(2,6-dioxopiperidin-3-yl)-5-(4-(((R)-3-(2-(4-(6-(5-isopropoxy-1H-indazol-3-yl)pyrimidin-4-yl)piperazin-1-yl)ethyl)pyrrolidin-1-yl)methyl)piperidin-1-yl)isoindoline-1,3-dione]	–	–	50 to 70	10 to 50	10 to 50	50 to 70
CC(C)Oc1ccc2[nH]nc(-c3cc(N4CCO[C@@H](CN5CCN(CC6CCN(c7ccc8c(c7)C(=O)N(C7CCC(=O)NC7=O)C8=O)CC6)CC5)C4)ncn3)c2c1 (stereo partly drawn) [compound 47, 2-(2,6-dioxopiperidin-3-yl)-5-(4-((4-(((S)-4-(6-(5-isopropoxy-1H-indazol-3-yl)pyrimidin-4-yl)morpholin-2-yl)methyl)piperazin-1-yl)methyl)piperidin-1-yl)isoindoline-1,3-dione]	–	–	50 to 70	< 10	10 to 50	50 to 70
CC(C)Oc1ccc2[nH]nc(-c3cc(N4CCO[C@H](CN5CCN(CC6CCN(c7ccc8c(c7)C(=O)N(C7CCC(=O)NC7=O)C8=O)CC6)CC5)C4)ncn3)c2c1 (stereo partly drawn) [compound 48, 2-(2,6-dioxopiperidin-3-yl)-5-(4-((4-(((R)-4-(6-(5-isopropoxy-1H-indazol-3-yl)pyrimidin-4-yl)morpholin-2-yl)methyl)piperazin-1-yl)methyl)piperidin-1-yl)isoindoline-1,3-dione]	–	–	50 to 70	< 10	< 10	50 to 70
CC(C)Oc1ccc2[nH]nc(-c3cc(N4CCO[C@@H](CCN5CCN(CC6CCN(c7ccc8c(c7)C(=O)N(C7CCC(=O)NC7=O)C8=O)CC6)CC5)C4)ncn3)c2c1 (stereo partly drawn) [compound 49, 2-(2,6-dioxopiperidin-3-yl)-5-(4-((4-(2-((S)-4-(6-(5-isopropoxy-1H-indazol-3-yl)pyrimidin-4-yl)morpholin-2-yl)ethyl)piperazin-1-yl)methyl)piperidin-1-yl)isoindoline-1,3-dione]	–	–	≥ 70	< 10	< 10	50 to 70
CC(C)Oc1ccc2[nH]nc(-c3cc(N4CCO[C@H](CCN5CCN(CC6CCN(c7ccc8c(c7)C(=O)N(C7CCC(=O)NC7=O)C8=O)CC6)CC5)C4)ncn3)c2c1 (stereo partly drawn) [compound 50, 2-(2,6-dioxopiperidin-3-yl)-5-(4-((4-(2-((R)-4-(6-(5-isopropoxy-1H-indazol-3-yl)pyrimidin-4-yl)morpholin-2-yl)ethyl)piperazin-1-yl)methyl)piperidin-1-yl)isoindoline-1,3-dione]	–	–	≥ 70	< 10	< 10	≥ 70

The next lines start with the values.

Dmax ([1]; read-out: **Endogenous WT Dmax (%)) [%]	DC50 ([1]; read-out: *Endogenous WT DC50) [nM]	Dmax [2] [%]	DC50 [2] [nM]	DC50 [3] [nM]	Dmax [3] [%]	SMILES
–	–	≥ 70	10 to 50	10 to 50	50 to 70	CC(C)Oc1ccc2[nH]nc(-c3cc(N4CCN(CC(F)(F)C5CCN(CC6CCN(c7ccc8c(c7)C(=O)N(C7CCC(=O)NC7=O)C8=O)CC6)CC5)CC4)ncn3)c2c1 (centres unmarked) [compound 40, 5-(4-((4-(1,1-difluoro-2-(4-(6-(5-isopropoxy-1H-indazol-3-yl)pyrimidin-4-yl)piperazin-1-yl)ethyl)piperidin-1-yl)methyl)piperidin-1-yl)-2-(2,6-dioxopiperidin-3-yl)isoindoline-1,3-dione]
–	–	≥ 70	10 to 50	10 to 50	50 to 70	CC(C)Oc1ccc2[nH]nc(-c3cc(N4CCN(CC[C@@H]5CCN(CC6CCN(c7ccc8c(c7)C(=O)N(C7CCC(=O)NC7=O)C8=O)CC6)C5)CC4)ncn3)c2c1 (stereo partly drawn) [compound 43, 2-(2,6-dioxopiperidin-3-yl)-5-(4-(((S)-3-(2-(4-(6-(5-isopropoxy-1H-indazol-3-yl)pyrimidin-4-yl)piperazin-1-yl)ethyl)pyrrolidin-1-yl)methyl)piperidin-1-yl)isoindoline-1,3-dione]
–	–	50 to 70	10 to 50	10 to 50	50 to 70	CC(C)Oc1ccc2[nH]nc(-c3cc(N4CCN(CCN5CC(C6CCN(c7ccc8c(c7)C(=O)N(C7CCC(=O)NC7=O)C8=O)CC6)C5)CC4)ncn3)c2c1 (centres unmarked) [compound 44, 2-(2,6-dioxopiperidin-3-yl)-5-(4-(1-(2-(4-(6-(5-isopropoxy-1H-indazol-3-yl)pyrimidin-4-yl)piperazin-1-yl)ethyl)azetidin-3-yl)piperidin-1-yl)isoindoline-1,3-dione]
–	–	< 50	10 to 50	≥ 100	< 50	CC(C)Oc1ccc2[nH]nc(-c3cc(N4CCN(CCN5CC(CN6CCN(c7ccc8c(c7)C(=O)N(C7CCC(=O)NC7=O)C8=O)CC6)C5)CC4)ncn3)c2c1 (centres unmarked) [compound 45, 2-(2,6-dioxopiperidin-3-yl)-5-(4-((1-(2-(4-(6-(5-isopropoxy-1H-indazol-3-yl)pyrimidin-4-yl)piperazin-1-yl)ethyl)azetidin-3-yl)methyl)piperazin-1-yl)isoindoline-1,3-dione]
–	–	50 to 70	10 to 50	10 to 50	50 to 70	CC(C)Oc1ccc2[nH]nc(-c3cc(N4CCN(CCN5CCC(CC6CCN(c7ccc8c(c7)C(=O)N(C7CCC(=O)NC7=O)C8=O)CC6)CC5)CC4)ncn3)c2c1 (centres unmarked) [compound 51, 2-(2,6-dioxopiperidin-3-yl)-5-(4-((1-(2-(4-(6-(5-isopropoxy-1H-indazol-3-yl)pyrimidin-4-yl)piperazin-1-yl)ethyl)piperidin-4-yl)methyl)piperidin-1-yl)isoindoline-1,3-dione]
